Source: patent publication US8569281B2, “Compounds and their administration for treating a neurodegenerative disease as well as a method for identifying a compound capable of inhibiting a kinase, such as LRRK” (Medical Research Council Technology, priority 2010, dated 2013)

Molecular target: LRRK2 (Homo sapiens (Human), UniProt Q5S007)
Test: In Vitro LRRK2 Assay (LabChip 3000, fluorescently-labeled peptide substrate)
Format: biochemical
Details: ATP 130 μM, substrate 1 μM, 2 hours, ambient temperature; LRRK2 variant not given; read-out: Ki (μM), affinity values for LRRK2
Procedure: This assay was used to determine a compound's potency in inhibiting activity of LRRK2 by determining, Kiapp, IC50, or percent inhibition values. In a polypropylene plate, LRRK2, fluorescently-labeled peptide substrate, ATP and test compound were incubated together. Using a LabChip 3000 (Caliper Life Sciences), after the reaction the substrate was separated by capillary electrophoresis into two populations: phosphorylated and unphosphorylated. The relative amounts of each were quantitated by fluorescence intensity. LRRK2 Ki was determined according to the equation: Y=V0*(1−((x+Ki*(1+S/Km)+Et)/(2*Et)−(((x+Ki*(1+S/Km)+Et)^2−(4*Et*x))^0.5)/(2*Et))).
Ki values in Table 4 and elsewhere herein are shown in μM.
Assay conditions and materials used were as follows:
Compound Plate Preparation:
For serial dilutions, 34.6 μl DMSO was added to columns 3-24.
Total and Blank Preparation:
In Complete Reaction Buffer, substrate was diluted to 4 μM. Equal volumes of Complete Reaction Buffer and 4 μM substrate were combined to obtain the blank. Equal volumes of Complete Reaction Buffer and 4 μM substrate were combined and to the combined solution was added 2× final LRRK2 concentration.
To a 50 μl polypropylene plate, 5 μl/well buffer/substrate was added by hand to Blank wells. A Biomek FX was used to start the kinase reaction (“PLK SAR 23 ATP”). The following were added to the appropriate wells: • 2 μl compound+23 μl ATP; • 5 μl/well compound/ATP in Assay Plate; • 5 μl/well kinase/substrate in Assay Plate;
The plate was incubated for 2 hours in the dark. Biomek FX was used to stop the kinase reaction (“PLK Stop”), and 10 μl/well Stop solution was added to the Assay Plate. Results were read on the LabChip 3000.
The LabChip 3000 was run using the job “LRRK2 IC50” with the following job settings: • Pressure: −1.4 psi • Downstream voltage: −500 V • Upstream voltage: −2350 V • Post sample buffer sip time: 75 seconds • Post dye buffer sip time: 75 seconds • Final delay time: 200 seconds Parkinson's Disease Animal Model

LRRK2, sequence (Q5S007 whole entry G2019S): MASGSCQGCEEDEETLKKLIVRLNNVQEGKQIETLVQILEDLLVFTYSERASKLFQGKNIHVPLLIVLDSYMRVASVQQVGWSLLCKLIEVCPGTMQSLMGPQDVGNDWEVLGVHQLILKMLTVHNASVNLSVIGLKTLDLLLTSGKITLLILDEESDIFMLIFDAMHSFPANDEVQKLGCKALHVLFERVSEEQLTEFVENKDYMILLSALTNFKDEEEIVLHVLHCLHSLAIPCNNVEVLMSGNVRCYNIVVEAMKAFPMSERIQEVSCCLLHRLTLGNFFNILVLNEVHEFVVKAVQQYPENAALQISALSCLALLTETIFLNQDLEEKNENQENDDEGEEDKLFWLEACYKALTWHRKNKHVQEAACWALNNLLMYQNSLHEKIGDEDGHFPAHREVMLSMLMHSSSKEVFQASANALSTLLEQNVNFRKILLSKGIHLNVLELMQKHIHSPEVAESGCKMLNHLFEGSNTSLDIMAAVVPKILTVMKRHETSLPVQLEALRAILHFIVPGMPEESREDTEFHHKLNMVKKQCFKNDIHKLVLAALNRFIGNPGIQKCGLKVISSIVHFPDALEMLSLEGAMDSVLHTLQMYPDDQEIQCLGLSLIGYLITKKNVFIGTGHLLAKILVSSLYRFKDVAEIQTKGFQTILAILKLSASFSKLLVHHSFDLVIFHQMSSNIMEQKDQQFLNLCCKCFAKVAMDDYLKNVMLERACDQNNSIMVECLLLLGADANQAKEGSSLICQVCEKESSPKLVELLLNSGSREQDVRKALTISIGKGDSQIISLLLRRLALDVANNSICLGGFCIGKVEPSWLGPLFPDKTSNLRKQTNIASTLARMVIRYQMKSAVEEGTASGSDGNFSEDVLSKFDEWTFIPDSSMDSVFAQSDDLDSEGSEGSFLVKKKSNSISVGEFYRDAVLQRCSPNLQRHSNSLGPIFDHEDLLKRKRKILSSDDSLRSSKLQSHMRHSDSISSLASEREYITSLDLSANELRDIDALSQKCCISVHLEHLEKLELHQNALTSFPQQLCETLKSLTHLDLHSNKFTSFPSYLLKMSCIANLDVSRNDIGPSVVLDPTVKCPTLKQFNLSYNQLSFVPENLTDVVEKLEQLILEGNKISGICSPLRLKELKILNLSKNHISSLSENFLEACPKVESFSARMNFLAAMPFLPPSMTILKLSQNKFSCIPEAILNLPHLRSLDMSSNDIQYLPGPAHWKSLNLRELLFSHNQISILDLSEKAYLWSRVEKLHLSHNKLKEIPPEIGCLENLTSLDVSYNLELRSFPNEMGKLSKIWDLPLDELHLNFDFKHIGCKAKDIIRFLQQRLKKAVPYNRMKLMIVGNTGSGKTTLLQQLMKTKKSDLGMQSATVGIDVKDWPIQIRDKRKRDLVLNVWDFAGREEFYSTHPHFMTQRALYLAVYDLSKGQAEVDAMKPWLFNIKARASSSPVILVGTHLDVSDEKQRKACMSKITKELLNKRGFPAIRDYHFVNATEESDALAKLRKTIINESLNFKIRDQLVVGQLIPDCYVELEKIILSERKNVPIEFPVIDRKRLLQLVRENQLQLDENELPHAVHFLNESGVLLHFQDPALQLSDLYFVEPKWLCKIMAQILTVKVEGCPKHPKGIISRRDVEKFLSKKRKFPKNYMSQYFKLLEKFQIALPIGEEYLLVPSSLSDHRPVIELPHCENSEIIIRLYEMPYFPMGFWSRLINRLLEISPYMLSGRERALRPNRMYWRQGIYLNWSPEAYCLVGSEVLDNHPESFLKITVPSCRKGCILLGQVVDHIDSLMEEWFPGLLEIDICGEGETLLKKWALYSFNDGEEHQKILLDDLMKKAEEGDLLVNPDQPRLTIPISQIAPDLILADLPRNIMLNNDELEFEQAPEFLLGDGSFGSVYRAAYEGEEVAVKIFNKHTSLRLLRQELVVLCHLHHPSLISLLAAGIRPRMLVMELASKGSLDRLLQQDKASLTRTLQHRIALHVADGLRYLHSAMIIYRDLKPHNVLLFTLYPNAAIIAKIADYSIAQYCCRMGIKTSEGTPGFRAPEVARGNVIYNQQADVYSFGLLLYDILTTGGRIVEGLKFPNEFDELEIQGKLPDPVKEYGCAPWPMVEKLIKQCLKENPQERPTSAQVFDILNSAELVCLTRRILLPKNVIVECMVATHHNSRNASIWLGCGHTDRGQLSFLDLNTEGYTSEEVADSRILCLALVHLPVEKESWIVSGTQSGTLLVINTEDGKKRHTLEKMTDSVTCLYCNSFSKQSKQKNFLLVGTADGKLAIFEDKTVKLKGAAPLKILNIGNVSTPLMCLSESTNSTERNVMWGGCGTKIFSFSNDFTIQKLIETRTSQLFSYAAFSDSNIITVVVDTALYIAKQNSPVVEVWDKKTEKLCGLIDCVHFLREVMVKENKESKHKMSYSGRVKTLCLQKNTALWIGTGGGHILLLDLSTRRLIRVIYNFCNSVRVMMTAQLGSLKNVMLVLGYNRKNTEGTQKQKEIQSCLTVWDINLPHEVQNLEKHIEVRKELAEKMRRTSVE

Structure (SMILES)	Ki
CC(C)n1cc(-c2n[nH]c3ccnc(OC4CCOCC4)c23)cc1C(=O)N1CCOCC1 [Example 65, (1-isopropyl-4-(4-(tetrahydro-2H-pyran-4-yloxy)-1H-pyrazolo[4,3-c]pyridin-3-yl)-1H-pyrrol-2-yl)(morpholino)methanone]	0.039 µM
c1cc2[nH]nc(-c3cnn(C4CCCC4)c3)c2c(OC2CCOCC2)n1 [Example 39, 3-(1-Cyclopentyl-1H-pyrazol-4-yl)-4-(tetrahydro-2H-pyran-4-yloxy)-1H-pyrazolo[4,3-c]pyridine]	0.006 µM
COc1nccc2[nH]nc(-c3ccnc(-c4cnn(C)c4)c3)c12 [Example 121, 4-Methoxy-3-(2-(1-methyl-1H-pyrazol-4-yl)pyridin-4-yl)-1H-pyrazolo[4,3-c]pyridine]	0.042 µM
c1cc2[nH]nc(-c3ccc4cn[nH]c4c3)c2c(OC2CCOCC2)n1 [Example 138, 3-(1H-Indazol-6-yl)-4-(tetrahydro-2H-pyran-4-yloxy)-1H-pyrazolo[4,3-c]pyridine]	0.013 µM
Cc1cc2[nH]nc(-c3ccnc(N4CCOCC4)c3)c2c(OC2CCOCC2)n1 [Example 172, 4-(4-(6-methyl-4-(tetrahydro-2H-pyran-4-yloxy)-1H-pyrazolo[4,3-c]pyridin-3-yl)pyridin-2-yl)morpholine]	0.035 µM
FC(F)(F)Cn1cc(-c2n[nH]c3ccnc(OC4CCOCC4)c23)cn1 [Example 96, 4-(tetrahydro-2H-pyran-4-yloxy)-3-(1-(2,2,2-trifluoroethyl)-1H-pyrazol-4-yl)-1H-pyrazolo[4,3-c]pyridine]	0.006 µM
CC1CCCN(c2cc(-c3n[nH]c4ccnc(OC5CCOCC5)c34)ccn2)C1 (centres unmarked) [Example 111, 3-(2-(3-Methylpiperidin-1-yl)pyridin-4-yl)-4-(tetrahydro-2H-pyran-4-yloxy)-1H-pyrazolo[4,3-c]pyridine]	0.006 µM
Cn1cnc2cc(-c3n[nH]c4ccnc(OC5CCOCC5)c34)ccc21 [Example 145, 3-(1-methyl-1H-benzo[d]imidazol-5-yl)-4-(tetrahydro-2H-pyran-4-yloxy)-1H-pyrazolo[4,3-c]pyridine]	0.036 µM
CC(C)n1cc2ccc(-c3n[nH]c4ccnc(OC5CCOCC5)c34)cc2n1 [Example 143, 3-(2-isopropyl-2H-indazol-6-yl)-4-(tetrahydro-2H-pyran-4-yloxy)-1H-pyrazolo[4,3-c]pyridine]	0.032 µM
CC(C)n1cc(-c2n[nH]c3ccnc(OCC(F)(F)F)c23)cn1 [Example 76, 3-(1-Isopropyl-1H-pyrazol-4-yl)-4-(2,2,2-trifluoroethoxy)-1H-pyrazolo[4,3-c]pyridine]	0.026 µM
Cn1cc(-c2cc(-c3n[nH]c4ccnc(OC5CCOCC5)c34)ccn2)cn1 [Example 116, 3-(2-(1-Methyl-1H-pyrazol-4-yl)pyridin-4-yl)-4-(tetrahydro-2H-pyran-4-yloxy)-1H-pyrazolo[4,3-c]pyridine]	0.01 µM
CN1CCN(c2cc(-c3n[nH]c4ccnc(OC5CCOCC5)c34)ccn2)CC1 [Example 14, 3-[2-(4-Methylpiperazin-1-yl)pyridin-4-yl]-4-(tetrahydro-2H-pyran-4-yloxy)-1H-pyrazolo[4,3-c]pyridine]	0.006 µM
N#Cc1cc(-c2n[nH]c3ccnc(OC4CCOCC4)c23)ccn1 [Example 174, 4-(4-(tetrahydro-2H-pyran-4-yloxy)-1H-pyrazolo[4,3-c]pyridin-3-yl)picolinonitrile]	0.13 µM
c1cc2n[nH]c(C3CC3)c2c(OC2CCCCC2)n1 [Example 26, 4-(Cyclohexyloxy)-3-cyclopropyl-1H-pyrazolo[4,3-c]pyridine]	0.024 µM
COc1nccc2[nH]nc(-c3cnn(CC4(C)COC4)c3)c12 [Example 89, 4-Methoxy-3-(1-((3-methyloxetan-3-yl)methyl)-1H-pyrazol-4-yl)-1H-pyrazolo[4,3-c]pyridine]	0.108 µM
c1cc(-c2n[nH]c3ccnc(OC4CCOCC4)c23)cc(NC2COC2)n1 [Example 113, N-(Oxetan-3-yl)-4-(4-(tetrahydro-2H-pyran-4-yloxy)-1H-pyrazolo[4,3-c]pyridin-3-yl)pyridin-2-amine]	0.136 µM
COc1nccc2n[nH]c(-c3cccc(S(C)(=O)=O)c3)c12 [Example 167, 4-Methoxy-3-(3-(methylsulfonyl)phenyl)-1H-pyrazolo[4,3-c]pyridine]	0.045 µM
FC(F)(F)COc1nccc2[nH]nc(-c3ccnc(N4CCOCC4)c3)c12 [Example 74, 4-(4-(4-(2,2,2-Trifluoroethoxy)-1H-pyrazolo[4,3-c]pyridin-3-yl)pyridin-2-yl)morpholine]	0.031 µM
c1cc(-c2n[nH]c3ccnc(OC4CCOCC4)c23)cc(N2CCCC2)n1 [Example 110, 3-(2-(Pyrrolidin-1-yl)pyridin-4-yl)-4-(tetrahydro-2H-pyran-4-yloxy)-1H-pyrazolo[4,3-c]pyridine]	0.003 µM

Second part, the compound after the results:

Ki	Structure (SMILES)
0.033 µM	COc1nccc2[nH]nc(-c3cnn(C4CCOCC4)c3)c12 [Example 184, 4-methoxy-3-(1-(tetrahydro-2H-pyran-4-yl)-1H-pyrazol-4-yl)-1H-pyrazolo[4,3-c]pyridine]
0.013 µM	c1cc(-c2n[nH]c3ccnc(OC4CCOC4)c23)cc(N2CCOCC2)n1 (centres unmarked) [Example 190, 4-(4-(4-(tetrahydrofuran-3-yloxy)-1H-pyrazolo[4,3-c]pyridin-3-yl)pyridin-2-yl)morpholine]
0.011 µM	CC(=O)Nc1ccc(-c2cc(-c3n[nH]c4ccnc(OC5CCOCC5)c34)ccn2)cc1 [Example 210, N-(4-(4-(4-(tetrahydro-2H-pyran-4-yloxy)-1H-pyrazolo[4,3-c]pyridin-3-yl)pyridin-2-yl)phenyl)acetamide]
0.008 µM	CC(C)n1cc(-c2n[nH]c3ccnc(OC4CCOCC4)c23)cc1C(=O)N1CCC1 [Example 218, Azetidin-1-yl-{1-isopropyl-4-[4-(tetrahydro-pyran-4-yloxy)-1H-pyrazolo[4,3-c]pyridin-3-yl]-1H-pyrrol-2-yl}-methanone]
0.009 µM	CN(C)C(=O)c1ccc(-c2cc(-c3n[nH]c4ccnc(OC5CCOCC5)c34)ccn2)cc1 [Example 212, N,N-dimethyl-4-(4-(4-(tetrahydro-2H-pyran-4-yloxy)-1H-pyrazolo[4,3-c]pyridin-3-yl)pyridin-2-yl)benzamide]
0.01 µM	CC(=O)Nc1cccc(-c2cc(-c3n[nH]c4ccnc(OC5CCOCC5)c34)ccn2)c1 [Example 209, N-(3-(4-(4-(tetrahydro-2H-pyran-4-yloxy)-1H-pyrazolo[4,3-c]pyridin-3-yl)pyridin-2-yl)phenyl)acetamide]
0.858 µM	Cc1n[nH]c2ccnc(OC3CCCC3)c12 [Example 196, 4-(cyclopentyloxy)-3-methyl-1H-pyrazolo[4,3-c]pyridine]
0.046 µM	c1ncc(-c2cc(-c3n[nH]c4ccnc(OC5CCOCC5)c34)ccn2)cn1 [Example 199, 3-(2-(pyrimidin-5-yl)pyridin-4-yl)-4-(tetrahydro-2H-pyran-4-yloxy)-1H-pyrazolo[4,3-c]pyridine]
0.009 µM	N#Cc1cccc(-c2cc(-c3n[nH]c4ccnc(OC5CCOCC5)c34)ccn2)c1 [Example 201, 3-(4-(4-(tetrahydro-2H-pyran-4-yloxy)-1H-pyrazolo[4,3-c]pyridin-3-yl)pyridin-2-yl) benzonitrile]
0.066 µM	CC(=O)Nc1ccccc1-c1cc(-c2n[nH]c3ccnc(OC4CCOCC4)c23)ccn1 [Example 206, N-(2-(4-(4-(tetrahydro-2H-pyran-4-yloxy)-1H-pyrazolo[4,3-c]pyridin-3-yl)pyridin-2-yl)phenyl)acetamide]
